{
  "source": "patent US20040224914A1",
  "about": "“Method for treatment of angiogenic disorders” (The University of British Columbia, priority 2003, published 2004)",
  "key": {"HUVECS [1]": {"system": "HUVECS", "experiment": "HUVECS cell viability (mts) after antisense with or without drug", "assay_type": "cell-based, human", "procedure": "HUVECS were grown for 2 days in wells after seeding at 1200 per well. Antisense oligonucleotide of Seq. ID No. 5 (4 μg/ml with LIPOFECTIN™) was added in serum free medium and incubated with the cells for 4 hours. Then 100 μl of serum was added and incubation was continued overnight. The next day, 150 μl of drug solution in serum medium was added. After two days, 20 μl of mts solution was added and left for approximately 3 hours. Cell viability was determined as the difference between absorption at 490 and 595 nm."}, "HUVECS [2]": {"system": "HUVECS", "settings": "by the induction of apoptosis; cited from earlier work"}, "[3]": {"settings": "Table 2 series, Drug alone (100 nM camptothecin)"}, "[4]": {"settings": "Table 3 series, Drug alone (200 nM doxorubicin)"}, "[5]": {"settings": "Table 1 series, Drug alone (100 nM paclitaxel)"}, "[6]": {"settings": "Table 1 series, AS 50 nM, no drug"}, "[7]": {"settings": "Table 1 series, AS 100 nM, no drug"}, "[8]": {"settings": "Table 1 series, AS 200 nM, no drug"}, "[9]": {"settings": "Table 1 series, Drug (100 nM paclitaxel) + AS 50 nM"}, "[10]": {"settings": "Table 1 series, Drug (100 nM paclitaxel) + AS 100 nM"}, "[11]": {"settings": "Table 1 series, Drug (100 nM paclitaxel) + AS 200 nM"}, "[12]": {"settings": "Table 2 series, AS 50 nM, no drug"}, "[13]": {"settings": "Table 2 series, AS 100 nM, no drug"}, "[14]": {"settings": "Table 2 series, AS 200 nM, no drug"}, "[15]": {"settings": "Table 2 series, Drug (100 nM camptothecin) + AS 50 nM"}, "[16]": {"settings": "Table 2 series, Drug (100 nM camptothecin) + AS 100 nM"}, "[17]": {"settings": "Table 2 series, Drug (100 nM camptothecin) + AS 200 nM"}, "[18]": {"settings": "Table 3 series, AS 50 nM, no drug"}, "[19]": {"settings": "Table 3 series, AS 100 nM, no drug"}, "[20]": {"settings": "Table 3 series, AS 200 nM, no drug"}, "[21]": {"settings": "Table 3 series, Drug (200 nM doxorubicin) + AS 50 nM"}, "[22]": {"settings": "Table 3 series, Drug (200 nM doxorubicin) + AS 100 nM"}, "[23]": {"settings": "Table 3 series, Drug (200 nM doxorubicin) + AS 200 nM"}},
  "data": [
    {"compound": "CC[C@@]1(O)C(=O)OCc2c1cc1n(c2=O)Cc2cc3ccccc3nc2-1", "note": "[camptothecin, reference compound]", "values": [
      {"measurement": "absorbance at 490 nm (mts, cell viability)", "setting": "HUVECS [1]; [3]", "value": 0.55},
      {"measurement": "absorbance at 595 nm (mts, cell viability)", "setting": "HUVECS [1]; [3]", "value": 0.07},
      {"measurement": "concentration range that inhibits Huvecs", "setting": "HUVECS [2]", "value": "low nanomolar range"}
    ]},
    {"compound": "COc1cccc2c1C(=O)c1c(O)c3c(c(O)c1C2=O)C[C@@](O)(C(=O)CO)C[C@@H]3O[C@H]1C[C@H](N)[C@H](O)[C@H](C)O1", "note": "[doxorubicin, reference compound]", "values": [
      {"measurement": "absorbance at 490 nm (mts, cell viability)", "setting": "HUVECS [1]; [4]", "value": 0.74},
      {"measurement": "absorbance at 595 nm (mts, cell viability)", "setting": "HUVECS [1]; [4]", "value": 0.08},
      {"measurement": "concentration range that inhibits Huvecs", "setting": "HUVECS [2]", "value": "low nanomolar range"}
    ]},
    {"compound": "CC(=O)O[C@H]1C(=O)[C@@]2(C)[C@H]([C@H](OC(=O)c3ccccc3)[C@]3(O)C[C@H](OC(=O)[C@H](O)[C@@H](NC(=O)c4ccccc4)c4ccccc4)C(C)=C1C3(C)C)[C@]1(OC(C)=O)CO[C@@H]1C[C@@H]2O", "note": "[paclitaxel, reference compound]", "values": [
      {"measurement": "absorbance at 490 nm (mts, cell viability)", "setting": "HUVECS [1]; [5]", "value": 0.53},
      {"measurement": "absorbance at 595 nm (mts, cell viability)", "setting": "HUVECS [1]; [5]", "value": 0.12},
      {"measurement": "concentration range that inhibits Huvecs", "setting": "HUVECS [2]", "value": "low nanomolar range"}
    ]},
    {"compound": "AS: Antisense oligonucleotide of Seq. ID No. 5, which reduces the effective amount of clusterin (antisense CAGCAGCAGAGTCTTCATCAT; listed as DNA, chemistry not given here)", "values": [
      {"measurement": "cell viability response to antisense concentration", "setting": "HUVECS [1]; FIG. 1, paclitaxel series", "value": "dose dependent response"},
      {"measurement": "cell viability response to antisense in the presence of drug versus absence", "setting": "HUVECS [1]; FIG. 1, in the presence of 100 nM paclitaxel", "value": "the response is greater"},
      {"measurement": "cell viability response to antisense concentration", "setting": "HUVECS [1]; FIG. 2, camptothecin series", "value": "dose dependent response"},
      {"measurement": "cell viability response to antisense in the presence of drug versus absence", "setting": "HUVECS [1]; FIG. 2, in the presence of 100 nM camptothecin", "value": "the response is greater"},
      {"measurement": "cell viability response to antisense concentration", "setting": "HUVECS [1]; FIG. 3, doxorubicin series", "value": "dose dependent response"},
      {"measurement": "cell viability response to antisense in the presence of drug versus absence", "setting": "HUVECS [1]; FIG. 3, in the presence of 200 nM doxorubicin", "value": "the response is greater"},
      {"measurement": "absorbance at 490 nm (mts, cell viability)", "setting": "HUVECS [1]; [6]", "value": 0.66},
      {"measurement": "absorbance at 595 nm (mts, cell viability)", "setting": "HUVECS [1]; [6]", "value": 0.04},
      {"measurement": "absorbance at 490 nm (mts, cell viability)", "setting": "HUVECS [1]; [7]", "value": 0.40},
      {"measurement": "absorbance at 595 nm (mts, cell viability)", "setting": "HUVECS [1]; [7]", "value": 0.09},
      {"measurement": "absorbance at 490 nm (mts, cell viability)", "setting": "HUVECS [1]; [8]", "value": 0.28},
      {"measurement": "absorbance at 595 nm (mts, cell viability)", "setting": "HUVECS [1]; [8]", "value": 0.07},
      {"measurement": "absorbance at 490 nm (mts, cell viability)", "setting": "HUVECS [1]; [9]", "value": 0.50},
      {"measurement": "absorbance at 595 nm (mts, cell viability)", "setting": "HUVECS [1]; [9]", "value": 0.09},
      {"measurement": "absorbance at 490 nm (mts, cell viability)", "setting": "HUVECS [1]; [10]", "value": 0.24},
      {"measurement": "absorbance at 595 nm (mts, cell viability)", "setting": "HUVECS [1]; [10]", "value": 0.04},
      {"measurement": "absorbance at 490 nm (mts, cell viability)", "setting": "HUVECS [1]; [11]", "value": 0.17},
      {"measurement": "absorbance at 595 nm (mts, cell viability)", "setting": "HUVECS [1]; [11]", "value": 0.05},
      {"measurement": "absorbance at 490 nm (mts, cell viability)", "setting": "HUVECS [1]; [12]", "value": 0.66},
      {"measurement": "absorbance at 595 nm (mts, cell viability)", "setting": "HUVECS [1]; [12]", "value": 0.10},
      {"measurement": "absorbance at 490 nm (mts, cell viability)", "setting": "HUVECS [1]; [13]", "value": 0.39},
      {"measurement": "absorbance at 595 nm (mts, cell viability)", "setting": "HUVECS [1]; [13]", "value": 0.06},
      {"measurement": "absorbance at 490 nm (mts, cell viability)", "setting": "HUVECS [1]; [14]", "value": 0.21},
      {"measurement": "absorbance at 595 nm (mts, cell viability)", "setting": "HUVECS [1]; [14]", "value": 0.04},
      {"measurement": "absorbance at 490 nm (mts, cell viability)", "setting": "HUVECS [1]; [15]", "value": 0.53},
      {"measurement": "absorbance at 595 nm (mts, cell viability)", "setting": "HUVECS [1]; [15]", "value": 0.07},
      {"measurement": "absorbance at 490 nm (mts, cell viability)", "setting": "HUVECS [1]; [16]", "value": 0.31},
      {"measurement": "absorbance at 595 nm (mts, cell viability)", "setting": "HUVECS [1]; [16]", "value": 0.08},
      {"measurement": "absorbance at 490 nm (mts, cell viability)", "setting": "HUVECS [1]; [17]", "value": 0.15},
      {"measurement": "absorbance at 595 nm (mts, cell viability)", "setting": "HUVECS [1]; [17]", "value": 0.05},
      {"measurement": "absorbance at 490 nm (mts, cell viability)", "setting": "HUVECS [1]; [18]", "value": 0.66},
      {"measurement": "absorbance at 595 nm (mts, cell viability)", "setting": "HUVECS [1]; [18]", "value": 0.07},
      {"measurement": "absorbance at 490 nm (mts, cell viability)", "setting": "HUVECS [1]; [19]", "value": 0.35},
      {"measurement": "absorbance at 595 nm (mts, cell viability)", "setting": "HUVECS [1]; [19]", "value": 0.05},
      {"measurement": "absorbance at 490 nm (mts, cell viability)", "setting": "HUVECS [1]; [20]", "value": 0.22},
      {"measurement": "absorbance at 595 nm (mts, cell viability)", "setting": "HUVECS [1]; [20]", "value": 0.04},
      {"measurement": "absorbance at 490 nm (mts, cell viability)", "setting": "HUVECS [1]; [21]", "value": 0.66},
      {"measurement": "absorbance at 595 nm (mts, cell viability)", "setting": "HUVECS [1]; [21]", "value": 0.06},
      {"measurement": "absorbance at 490 nm (mts, cell viability)", "setting": "HUVECS [1]; [22]", "value": 0.32},
      {"measurement": "absorbance at 595 nm (mts, cell viability)", "setting": "HUVECS [1]; [22]", "value": 0.04},
      {"measurement": "absorbance at 490 nm (mts, cell viability)", "setting": "HUVECS [1]; [23]", "value": 0.18},
      {"measurement": "absorbance at 595 nm (mts, cell viability)", "setting": "HUVECS [1]; [23]", "value": 0.02},
      {"measurement": "effect of antisense on inhibition of cell proliferation induced by antiproliferative drugs", "setting": "HUVECS [1]; paclitaxel, camptothecin, doxorubicin, downregulation of clusterin", "value": "enhanced"}
    ]}
  ]
}
